The NIST ThermoML archive (doi:10.1021/je800439e)
Several values for one entry are separate records, joined by “and”; a condition that tells them apart may be missing. Equal entries are not always repeated.

How the values were obtained:
[1] = xn = mol fraction of the nth substance listed; conditions: 101 kPa, Liquid
[2] = 101 kPa, Liquid

CCCCCc1ccc(C2CCC(CCC)CC2)cc1 (stereo not given) [1-pentyl-4-(4-propylcyclohexyl)-benzene] + Cc1c(C)c2c(c(C)c1O)CCC(C)(CCCC(C)CCCC(C)CCCC(C)C)O2
viscosity [mPa·s], [1]
Conditions	x2 = 0	x2 = 0.2058	x2 = 0.4023	x2 = 0.6026	x2 = 0.8018
278.15 K	27.74	75.95	384.28	1270.6	7471.9
284.15 K	21.48	53.48	231.6	794.38	3488.2
290.15 K	16.95	38.25	145.52	441.94	1669.9
296.15 K	13.5	28.1	96.37	266.41	911.16
302.15 K	11.09	21.57	65.92	163.27	485.33
308.15 K	9.21	16.8	46.14	106.33	278.53
314.15 K	7.64	13.17	33.91	71.05	173.09
320.15 K	6.58	10.98	26.01	51.66	120.77
325.15 K	6.01	9.33	20.65	39.36	82.86
330.15 K	5.19	7.98	16.86	30.2	61.04
335.15 K	4.57	6.85	14.03	24.08	46.15
340.15 K	4.13	6.04	11.75	19.47	35.24
345.15 K	3.68	5.37	9.97	16.1	27.32
350.15 K	3.29	4.7	8.55	13.3	22.24

CCCCCc1ccc(C2CCC(CCC)CC2)cc1 (stereo not given) [1-pentyl-4-(4-propylcyclohexyl)-benzene]
[2]
Conditions	viscosity [mPa·s]
278.15 K	27.74
284.15 K	21.48
290.15 K	16.95
296.15 K	13.5
302.15 K	11.09
308.15 K	9.21
314.15 K	7.64
320.15 K	6.58
325.15 K	6.01
330.15 K	5.19
335.15 K	4.57
340.15 K	4.13
345.15 K	3.68
350.15 K	3.29

Cc1cc(C)cc(C)c1 [1,3,5-trimethylbenzene] + Cc1c(C)c2c(c(C)c1O)CCC(C)(CCCC(C)CCCC(C)CCCC(C)C)O2
[1], x2 = 0
Conditions	viscosity [mPa·s]
278.15 K	0.85
284.15 K	0.8
290.15 K	0.75
296.15 K	0.63
302.15 K	0.57
308.15 K	0.53
314.15 K	0.49
320.15 K	0.46
325.15 K	0.44
330.15 K	0.41
335.15 K	0.4
340.15 K	0.39
345.15 K	0.35
350.15 K	0.34

Cc1cc(C)cc(C)c1 [1,3,5-trimethylbenzene]
[2]
Conditions	viscosity [mPa·s]
278.15 K	0.85
284.15 K	0.8
290.15 K	0.75
296.15 K	0.63
302.15 K	0.57
308.15 K	0.53
314.15 K	0.49
320.15 K	0.46
325.15 K	0.44
330.15 K	0.41
335.15 K	0.4
340.15 K	0.39
345.15 K	0.35
350.15 K	0.34

Cc1c(C)c2c(c(C)c1O)CCC(C)(CCCC(C)CCCC(C)CCCC(C)C)O2 (stereo not drawn) [dl-α-tocopherol] + Cc1cc(C)cc(C)c1
viscosity [mPa·s], [1]
Conditions	x1 = 0.2025	x1 = 0.4036	x1 = 0.5972	x1 = 0.7955	x1 = 1
278.15 K	6.85	148.08	1253.6	5944.7	37128
284.15 K	5.55	92.32	658.51	3037.6	15242
290.15 K	4.6	56.98	357.26	1533.2	6380.1
296.15 K	3.88	38	210.82	819.67	3017.5
302.15 K	3.24	26.65	130.99	477.36	1531
308.15 K	2.94	19.06	83.96	276.12	814.81
314.15 K	2.39	14.43	55.52	173.98	454.58
320.15 K	2.14	11.42	40.57	116	283.56
325.15 K	1.96	9.28	30.55	82.01	187.51
330.15 K	1.83	7.75	23.73	60.1	129.2
335.15 K	1.72	6.56	18.89	45.63	92.65
340.15 K	1.65	5.59	15.33	34.46	67.32
345.15 K	1.52	4.81	12.33	26.47	49.98
350.15 K	1.37	4.25	10.5	21.44	37.4

Cc1c(C)c2c(c(C)c1O)CCC(C)(CCCC(C)CCCC(C)CCCC(C)C)O2 (stereo not drawn) [dl-α-tocopherol] + CCCCCc1ccc(C2CCC(CCC)CC2)cc1
[1], x1 = 1
Conditions	viscosity [mPa·s]
278.15 K	37128
284.15 K	15242
290.15 K	6380
296.15 K	3017.5
302.15 K	1531
308.15 K	814.81
314.15 K	454.58
320.15 K	283.56
325.15 K	187.51
330.15 K	129.2
335.15 K	92.65
340.15 K	67.32
345.15 K	49.98
350.15 K	37.4

Cc1c(C)c2c(c(C)c1O)CCC(C)(CCCC(C)CCCC(C)CCCC(C)C)O2 (racemic) [dl-α-tocopherol]
[2]
Conditions	viscosity
278.15 K	37128 mPa·s
284.15 K	15242 mPa·s
290.15 K	6380 mPa·s and 6380.1 mPa·s
296.15 K	3017.5 mPa·s
302.15 K	1531 mPa·s
308.15 K	814.81 mPa·s
314.15 K	454.58 mPa·s
320.15 K	283.56 mPa·s
325.15 K	187.51 mPa·s
330.15 K	129.2 mPa·s
335.15 K	92.65 mPa·s
340.15 K	67.32 mPa·s
345.15 K	49.98 mPa·s
350.15 K	37.4 mPa·s
